Assay results as given in PubChem BioAssay AID1963962 (Molecular Pharmacology Branch, DTP, NCI, 2024).

Tested on: 967376-340-R-J2-PDC multicell spheroid viability
Test: Anticancer human tumor 967376-340-R-J2-PDC patient-derived colon adenocarcinoma cell line growth inhibition [PI3K]
Conditions: for IC50: curve of first compound; for viability, T/C: stronger effect = lower value; active = viability on the fitted dose curve at most 10% of control; inactive = the rest
Summary of the method: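 Stroma-containing spheroids: tumor line, pooled-donor HUVEC, hMSC. Treatments: targeted agents with PI3K inhibitors. Dosing: clinically relevant, half-log spacing, 10 microM ceiling without known Cmax. Read-out: cell viability.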
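Also: spheroids exposed to agents for 7 days before read-out.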
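For viability, T/C in this document: luminescence used as surrogate of cell viability.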

CC1(C)CCC(Nc2ncc(C(F)(F)F)c(-c3c[nH]c4c(P(C)(C)=O)c(C#N)ccc34)n2)CN1 (configuration not stated) + Cc1nc(NC(=O)N2CCCC2C(N)=O)sc1-c1ccnc(C(C)(C)C(F)(F)F)c1
3810 nM: IC50 (second compound 0.0316 µM)
629 nM: IC50 (second compound 1 µM)
386 nM: IC50 (second compound 3.16 µM)
3950 nM: IC50 (second compound 0.316 µM)
6060 nM: IC50 (second compound 0.1 µM)
43.2 nM: IC50 (second compound 10 µM)
inactive: viability, T/C (second compound 0.0316 µM, first compound 0.0316 µM) 82.8% | viability, T/C (second compound 0.0316 µM, first compound 0.1 µM) 72.5% | viability, T/C (second compound 0.0316 µM, first compound 0.316 µM) 55.6% | viability, T/C (second compound 0.0316 µM, first compound 1 µM) 54.7% | viability, T/C (second compound 0.0316 µM, first compound 3.16 µM) 61.5% | viability, T/C (second compound 0.0316 µM, first compound 10 µM) 40.8% | viability, T/C (second compound 0.1 µM, first compound 0.0316 µM) 78.4% | viability, T/C (second compound 0.1 µM, first compound 0.1 µM) 68.8% | viability, T/C (second compound 0.1 µM, first compound 0.316 µM) 69.7% | viability, T/C (second compound 0.1 µM, first compound 1 µM) 66.8% | viability, T/C (second compound 0.1 µM, first compound 3.16 µM) 63% | viability, T/C (second compound 0.1 µM, first compound 10 µM) 41.2% | viability, T/C (second compound 0.316 µM, first compound 0.0316 µM) 67.5% | viability, T/C (second compound 0.316 µM, first compound 0.1 µM) 73.3% | viability, T/C (second compound 0.316 µM, first compound 0.316 µM) 48.5% | viability, T/C (second compound 0.316 µM, first compound 1 µM) 58.5% | viability, T/C (second compound 0.316 µM, first compound 3.16 µM) 60.4% | viability, T/C (second compound 0.316 µM, first compound 10 µM) 39.2% | viability, T/C (second compound 1 µM, first compound 0.0316 µM) 51.6% | viability, T/C (second compound 1 µM, first compound 0.1 µM) 53.8% | viability, T/C (second compound 1 µM, first compound 0.316 µM) 72.8% | viability, T/C (second compound 1 µM, first compound 1 µM) 43.6% | viability, T/C (second compound 1 µM, first compound 3.16 µM) 45.5% | viability, T/C (second compound 1 µM, first compound 10 µM) 34.1% | viability, T/C (second compound 3.16 µM, first compound 0.0316 µM) 58.9% | viability, T/C (second compound 3.16 µM, first compound 0.1 µM) 51.2% | viability, T/C (second compound 3.16 µM, first compound 0.316 µM) 49.4% | viability, T/C (second compound 3.16 µM, first compound 1 µM) 47.3% | viability, T/C (second compound 3.16 µM, first compound 3.16 µM) 41.4% | viability, T/C (second compound 3.16 µM, first compound 10 µM) 30.7% | viability, T/C (second compound 10 µM, first compound 0.0316 µM) 54.8% | viability, T/C (second compound 10 µM, first compound 0.1 µM) 39.1% | viability, T/C (second compound 10 µM, first compound 0.316 µM) 39.6% | viability, T/C (second compound 10 µM, first compound 1 µM) 34.9% | viability, T/C (second compound 10 µM, first compound 3.16 µM) 31.4% | viability, T/C (second compound 10 µM, first compound 10 µM) 23.3%
